Results taken from article PMC11173628, “Imidazole Carbamates as a Promising Alternative for Treating Trichomoniasis: In Vitro Effects on the Growth and Gene Expression of Trichomonas vaginalis” (Molecules, 2024).
pIC50: −log10 of the molar value. “Also recorded” adds a separate entry of the source.

How the values were obtained:
[1] = test system: T. vaginalis Donne ATCC 30236 trophozoites; experiment: Determination of IC50 values (anti-Trichomonas activity, trypan blue and XTT); type: cell-based, Trichomonas vaginalis; conditions: for pIC50: Trichomonas vaginalis, ATCC30236, T. vaginalis Donne ATCC 30236, 24 h, 37 °C, 0–10 µM, trypan blue and XTT, read-out: IC50 (viability of T. vaginalis trophozoites); for Enhancement of trichomonacidal effect in relation to MTZ: ratio of IC50 values vs MTZ; for Enhancement of trichomonacidal effect in relation to NTZ: ratio of IC50 values vs NTZ
Method: Figure 2 Determination of the IC50 values of AGR compounds on the culture of Trichomonas vaginalis. […] The trophozoites were incubated in the presence of the compounds for 24 h at 37 °C with different concentrations of each compound. Values represent the mean ± standard deviation of three independent experiments.
The T. vaginalis Donne ATCC 30236 strain was acquired from the ATCC (American Type Culture Collection). It was cultured axenically in trypticase–yeast extract–maltose medium (TYM, at pH 6.0) supplemented with 10% sterile horse serum (previously inactivated at 56 °C for 30 min) and incubated at 37 °C [42]. The trophozoites were analyzed via motility, morphology, and trypan blue dye exclusion assays (0.4%) under an optical microscope with a magnification of 40×. The parasites were cultured for 24 h at 37 °C, corresponding to the logarithmic growth phase, and were used for anti-Trichomonas assays.
The anti-Trichomonas activity was evaluated in 1.5 mL tubes, where 2.6 × 10^5 trophozoites/mL was treated with increasing concentrations (0–10 µM) of the selected compounds. The tubes were incubated at 37 °C for 24 h. Then the trypan blue dye exclusion and XTT assay tests were used for evaluations of cell viability, as previously described. […] The IC50 values were calculated using GraphPad Prism 8.0 Inc. software, Version 8.0.2 (263) (San Diego, CA, USA).

[2] = test system: T. vaginalis trophozoites; experiment: Kinetic growth curve of T. vaginalis in presence of compounds; type: cell-based, Trichomonas vaginalis; conditions: compound at its IC50, monitored up to 96 h
Method: The trophozoites were incubated at the IC50 values for each compound. The viability and number of trophozoites were monitored at 6, 12, 18, 24, 48, 72, and 96 h with trypan blue (0.4%) (1:1, v/v) and XTT assays.
To understand the antiparasitic activities of the compounds against T. vaginalis cultures, we produced a curve of the kinetic growth of T. vaginalis as a function of time. […] Trophozoites were observed via light microscopy, and their growth and viability were evaluated at 6, 12, 24, 48, 72, and 96 h.

[3] = In vitro cytotoxicity assay (XTT), Caco-2; conditions: human
Method: (§1) Concentration–response curves for the viability of (A) Caco-2 and (B) HT29 cells treated with increasing concentrations of AGR compounds. […] Cell viability was determined using trypan blue dye exclusion (0.4%) (1:1, v/v) in a Neubauer chamber, as well as an XTT proliferation assay. Values represent the mean ± standard deviation of three independent experiments.
(§2) The Caco-2 and HT29 cell lines were provided by Luz Maria Rocha Ramirez from Hospital Infantil de México Federico Gómez, Secretaría de Salud. Cells were cultured in DMEM medium supplemented with 10% fetal bovine serum, 1% L-glutamine, and 1% penicillin/streptomycin at 37 °C in a 5% CO2 atmosphere. […] After incubation, cell viability was assessed using the XTT assay. The results are expressed as a percentage of viable cells compared with untreated cells. The cytotoxic concentration 50 (CC50) was calculated using GraphPad Prism 7.0 software. […] The assay was performed at least three times in triplicate. The selectivity index (SI) was calculated as SI = cells CC50/trophozoites IC50.

CaCo-2 cells = experiment: In vitro cytotoxicity assay (XTT), Caco-2; conditions: CC50 CaCo-2 / IC50 trophozoites
Method: as §1, §2

[4] = In vitro cytotoxicity assay (XTT), HT29; conditions: human
Method: as §1, §2

HT29 cells = experiment: In vitro cytotoxicity assay (XTT), HT29; conditions: CC50 HT29 / IC50 trophozoites
Method: as §1, §2

[5] = test system: T. vaginalis trophozoites (metabolic gene transcripts); experiment: Relative gene expression of T. vaginalis in presence of compounds (RT-qPCR, 2^-ΔΔCt, PK reference gene); type: cell-based, Trichomonas vaginalis; conditions: 24 h at IC50 concentration; for Increase of PFK transcripts: vs untreated control
Method: The main carbon and energy source for T. vaginalis is the fermentative carbohydrate metabolism. We sought to determine whether the death of T. vaginalis is related to changes in its metabolic genes. A gene expression assay based on RT-qPCR was performed to evaluate the transcription levels of several genes in T. vaginalis trophozoites that were incubated for 24 h at the IC50 concentration for each compound.
To evaluate the expression levels of the genes involved in the metabolism of T. vaginalis in the absence and presence of trichomonacidal compounds, the genetic expression levels of 15 genes were analyzed by means of real-time RT-qPCR. To this end, genes encoding enzymes involved in essential metabolic pathways for cell survival, such as glycolysis, the pentose phosphate pathway, structural proteins, and redox maintenance, were identified using the GenBank database (https://www.ncbi.nlm.nih.gov/genbank/ accessed on 15 January 2023) (Table 3).
The total RNA from trophozoites in the absence and presence of the compound was extracted using TRIzol® Reagent (Invitrogen, Carlsbad, CA, USA) according to the manufacturer’s instructions. The quality of RNA was assessed at 260/280 nm, and the integrity was assessed by 2.0% (w/v) agarose gel electrophoresis. For synthesis of the cDNA, samples were treated with 1 U of DNAase I enzyme (Thermo Fisher Scientific, Waltham, MA, USA). cDNA was synthesized using the primers Oligo (dT) 18 (Thermo Fisher Scientific) and RevertAid reverse transcriptase (Thermo Fisher Scientific). All synthesized cDNAs were quantified and stored at −70 °C until use.
We evaluated the expression levels of genes involved in the metabolism of T. vaginalis trophozoites in the absence and presence of trichomonacidal compounds. The amplification of the specific PCR products and the specificity of the primers of the genes proposed in this study (Table 4) were determined using the Fast SYBR® Green Master Mix kit (Applied Biosystems, Foster City, CA, USA) in the StepOnePlusTM Real-Time PCR Systems platform (Life Technologies, Foster City, CA, USA), which was carried out according to the method previously reported by Gutiérrez-Cardona et al..
The relative changes in the expression levels of the target genes (PK, CK, PFK, ALDO, TPI, GAPDH, ENOL, G6PD, 6PGDH, TKT, TALDO, PFOR, NADH, ACT, and TUB) were analyzed by the 2^−ΔΔCt method, using the PK reference gene for normalization. The curve was fitted with GraphPad Prism 8 software (GraphPad Software Inc., La Jolla, CA, USA), and statistical analysis was performed. ANOVA and the Tukey–Kramer test were used to evaluate the relative change in expression after normalization. Three replicates were included for each treatment, and all reactions were performed in triplicate.

[6] = Caco-2, CaCo-2 CC50, 48 h, 0–500 µM, XTT
[7] = HT29 cells, HT29 CC50, 48 h, 0–500 µM, XTT

| SMILES | pIC50 [1] | Enhancement of trichomonacidal effect in relation to MTZ [1] | Enhancement of trichomonacidal effect in relation to NTZ [1] [fold] | Effect on kinetic growth curve of T. vaginalis [2] | CC50 at 48 h [3, 6] [µM] | CaCo-2 SI (CC50/IC50) (CaCo-2 cells) | CC50 at 48 h [4, 7] [µM] | HT29 SI (CC50/IC50) (HT29 cells) | Effect on ALDO expression [5] | Expression of NADH oxidase gene [5] | Overexpression of PFOR [5] [fold] | Increase of PFK transcripts [5] [fold] | Effect on GAPDH expression [5] | Effect on PFK expression [5] | Decrease in the expression of PFOR [5] [fold] | CC50 at 48 h ([3]; Caco-2) [µM] | CC50 at 48 h [4] [µM] |
| --- | --- | --- | --- | --- | --- | --- | --- | --- | --- | --- | --- | --- | --- | --- | --- | --- | --- |
| Cc1ncc([N+](=O)[O-])n1CCOC(=O)NC1CCCCC1 [AGR-1] | 6.17 | fivefold | 10 | more significant delay in the logarithmic and stationary phases | 650 | 970.0 | 532 | 794 | increased | decreased | 11 | 1.2 | – | – | – | – | – |
| Cc1ncc([N+](=O)[O-])n1CCOC(=O)Nc1ccccc1 [AGR-2] | 6.40 | 8 fold | 16 | more significant delay in the logarithmic and stationary phases | 560 | >1000 | 730 | >1000 | reduced | decreased | 7.5 | 1.5 | reduced | – | – | – | – |
| Cc1ncc([N+](=O)[O-])n1CCOC(=O)Nc1ccc(Cl)cc1 [AGR-3] | 6.19 | fivefold | 10 | – | 523 | 817.1 | 660 | >1000 | reduced | – | 7.5 | – | reduced | negatively affected | – | – | – |
| Cc1ncc([N+](=O)[O-])n1CCOC(=O)Nc1ccc(F)cc1 [AGR-4] | 6.02 | – | – | more significant delay in the logarithmic and stationary phases; also recorded: inhibited the growth of the parasite to a greater degree | 510 | 531.2 | 593 | 617 | reduced | decreased | – | – | reduced | negatively affected | 1.5 | – | – |
| Cc1ncc([N+](=O)[O-])n1CCOC(=O)Nc1ccc([N+](=O)[O-])cc1 [AGR-5] | 5.84 | – | – | – | – | 400 | – | 386 | – | decreased | 2.5 | – | – | negatively affected | – | 580 | 560 |
| Cc1ncc([N+](=O)[O-])n1CCO [MTZ, metronidazole, reference compound] | 5.51 | – | – | – | – | – | – | – | – | – | – | – | – | – | – | – | – |
| CC(=O)Oc1ccccc1C(=O)Nc1ncc([N+](=O)[O-])s1 [NTZ, nitazoxanide, reference compound] | 5.18 | – | – | – | – | 87.6 | – | 95.7 | – | – | – | – | – | – | – | – | – |
